The values below come from ChEMBL document CHEMBL3045887, “Synthesis and anticonvulsant activity of some N-(benzoyl)glycinanilide derivatives” (Med Chem Res, 2013).

Series [1] concerns Mus musculus. The series can be described thus: Anticonvulsant activity in Swiss albino Mus musculus (mouse) assessed as protection against maximal electric shock-induced tonic-clonic seizures at 100 mg/kg, ip measured at 0.5 hr. The format is functional, organism-based. The arrangement: dose 100 mg/kg.
Series [2] has as its system Mus musculus. The series can be described thus: Anticonvulsant activity in Swiss albino Mus musculus (mouse) assessed as protection against maximal electric shock-induced tonic-clonic seizures at 30 mg/kg, ip measured at 0.5 hr. The format is functional, organism-based. Also noted: dose 30 mg/kg.
For series [3], the system named is Mus musculus. Kind of series: Neurotoxicity against Swiss albino Mus musculus (mouse) at 300 mg/kg, ip measured at 0.5 hr. The format is toxicity, organism-based. Also noted: dose 300 mg/kg, route intraperitoneal. The following applies: in vivo.
Series [4] relates to Mus musculus. The series can be described thus: Neurotoxicity against Swiss albino Mus musculus (mouse) at 100 mg/kg, ip measured at 0.5 hr. The class given is toxicity, organism-based. Also noted: dose 100 mg/kg, route intraperitoneal. The conditions noted are these: in vivo.
In series [5] the test system is Mus musculus. Kind of series: Neurotoxicity against Swiss albino Mus musculus (mouse) at 30 mg/kg, ip measured at 0.5 hr. The class given is toxicity, organism-based. Also noted: dose 30 mg/kg, route intraperitoneal. The conditions noted are these: in vivo.
In series [6] the test system is Mus musculus. The series can be described thus: Anticonvulsant activity in Swiss albino Mus musculus (mouse) assessed as protection against ScMet-induced myoclonic-clonic seizures at 300 mg/kg, ip measured at 4 hr. The class given is functional, organism-based. The arrangement: dose 300 mg/kg.
Series [7] has as its system Mus musculus. The series can be described thus: Anticonvulsant activity in Swiss albino Mus musculus (mouse) assessed as protection against ScMet-induced myoclonic-clonic seizures at 100 mg/kg, ip measured at 4 hr. The format is functional, organism-based. The arrangement: dose 100 mg/kg.
In series [8] the test system is Mus musculus. Kind of series: Anticonvulsant activity in Swiss albino Mus musculus (mouse) assessed as protection against ScMet-induced myoclonic-clonic seizures at 30 mg/kg, ip measured at 4 hr. The arrangement: dose 30 mg/kg. The class given is functional, organism-based.
Series [9] relates to Mus musculus. Kind of series: Anticonvulsant activity in Swiss albino Mus musculus (mouse) assessed as protection against ScMet-induced myoclonic-clonic seizures at 300 mg/kg, ip measured at 0.5 hr. The format is functional, organism-based. Also noted: dose 300 mg/kg.
Series [10] has as its system Mus musculus. Kind of series: Anticonvulsant activity in Swiss albino Mus musculus (mouse) assessed as protection against ScMet-induced myoclonic-clonic seizures at 100 mg/kg, ip measured at 0.5 hr. The class given is functional, organism-based. The arrangement: dose 100 mg/kg.
The subject of series [11] is Mus musculus. Kind of series: Anticonvulsant activity in Swiss albino Mus musculus (mouse) assessed as protection against ScMet-induced myoclonic-clonic seizures at 30 mg/kg, ip measured at 0.5 hr. The format is functional, organism-based. Also noted: dose 30 mg/kg.
Series [12] has as its system Mus musculus. The series can be described thus: Anticonvulsant activity in Swiss albino Mus musculus (mouse) assessed as protection against maximal electric shock-induced tonic-clonic seizures at 300 mg/kg, ip measured at 4 hr. The format is functional, organism-based. The arrangement: dose 300 mg/kg.
In series [13] the test system is Mus musculus. The series can be described thus: Anticonvulsant activity in Swiss albino Mus musculus (mouse) assessed as protection against maximal electric shock-induced tonic-clonic seizures at 100 mg/kg, ip measured at 4 hr. The arrangement: dose 100 mg/kg. The class given is functional, organism-based.
Series [14] relates to Mus musculus. Kind of series: Anticonvulsant activity in Swiss albino Mus musculus (mouse) assessed as protection against maximal electric shock-induced tonic-clonic seizures at 30 mg/kg, ip measured at 4 hr. The format is functional, organism-based. The arrangement: dose 30 mg/kg.
Series [15] has as its system Mus musculus. The series can be described thus: Anticonvulsant activity in Swiss albino Mus musculus (mouse) assessed as protection against maximal electric shock-induced tonic-clonic seizures at 300 mg/kg, ip measured at 0.5 hr. Also noted: dose 300 mg/kg. The format is functional, organism-based.
Series [16] concerns Mus musculus. Kind of series: Neurotoxicity against Swiss albino Mus musculus (mouse) at 300 mg/kg, ip measured at 4 hr. Also noted: dose 300 mg/kg, route intraperitoneal. The class given is toxicity, organism-based. The following applies: in vivo.
In series [17] the test system is Mus musculus. Kind of series: Neurotoxicity against Swiss albino Mus musculus (mouse) at 100 mg/kg, ip measured at 4 hr. The arrangement: dose 100 mg/kg, route intraperitoneal. The conditions noted are these: in vivo. The format is toxicity, organism-based.
Series [18] has as its system Mus musculus. Kind of series: Neurotoxicity against Swiss albino Mus musculus (mouse) at 30 mg/kg, ip measured at 4 hr. The format is toxicity, organism-based. The following applies: in vivo. The arrangement: dose 30 mg/kg, route intraperitoneal.

SMILES strings stand for the structures. Calls of active or inactive are those of the source. The calls are words filed in the database; no cut-off is given here.

For the compound `O=C(CNC(=O)c1ccccc1)Nc1ccccc1`, the result in the series with Mus musculus [1], in the series on Mus musculus [2], in the series with Mus musculus [6], in the series with Mus musculus [7], in the series with Mus musculus [8] and with Mus musculus [9] was inactive. The outcome in the series on Mus musculus [10], in the series with Mus musculus [11], in the series on Mus musculus [12], with Mus musculus [13] and with Mus musculus [14] was inactive. For the same compound, the Activity result with Mus musculus [3], in the series with Mus musculus [4], in the series with Mus musculus [5], with Mus musculus [16], with Mus musculus [17] and with Mus musculus [18] was “Non-toxic” in each case. In the series on Mus musculus [15], the result was Active.

With `CC(C)c1ccccc1NC(=O)CNC(=O)c1ccccc1`, the outcome in the series on Mus musculus [1], in the series on Mus musculus [2], in the series on Mus musculus [6], in the series with Mus musculus [7], with Mus musculus [8] and in the series with Mus musculus [9] was inactive. Besides, the outcome in the series with Mus musculus [10], with Mus musculus [11], with Mus musculus [12], with Mus musculus [13] and in the series with Mus musculus [14] was inactive. The Activity result in the series with Mus musculus [3], in the series on Mus musculus [4], in the series with Mus musculus [5], in the series with Mus musculus [16], in the series with Mus musculus [17] and with Mus musculus [18] was “Non-toxic” throughout. The outcome in the series on Mus musculus [15] was Active.
